This is an account of results in ChEMBL document CHEMBL4342431, “Synthesis and antileishmanial evaluation of thiazole orange analogs” (Bioorg Med Chem Lett, 2020).

SMILES strings stand for the structures. Active and inactive are the calls of the source. The calls are words filed in the database; no cut-off is given here.

The subject of series [1] is Leishmania donovani. Kind of series: Antileishmanial activity against Leishmania donovani Ld1s intracellular amasitgote infected in J774 cells incubated for 72 hrs by non-radioactive cell proliferation assay. Type of series: functional, organism-based. The note with it: J774, 72 h.
Series [2] has as its system J774. Kind of series: Cytotoxicity against mouse J774 cells assessed as reduction in cell viability incubated for 72 hrs by MTT assay. The note with it: J774, 72 h. Type of series: cell-based.
Series [3] is described as follows: Selectivity index, ratio of IC for mouse J774 cells to IC50 for Leishmania donovani Ld1s promastigotes. Type of series: toxicity. The conditions noted are these: J774 cells versus Leishmania donovani Ld1s promastigotes, read-out: Ratio IC50.
Series [4] deals with Leishmania donovani. Kind of series: Antileishmanial activity against Leishmania donovani LV82 amastigotes infected in mouse peritoneal microphage incubated for 72 hrs by DAPI staining based assay. Type of series: functional, organism-based. The note with it: LV82, 72 h.
Series [5] can be described thus: Binding affinity to 5'-dCCAAAATTTTG CTCT CAAAATTTTGG-3' DNA (unknown origin) assessed as change in melting temperature at 2:1 ligand and DNA by specrophotometry.
Series [6] in a line: Binding affinity to 5'-dCCAAAAGTTTTG CTCT CAAAACTTTTGG-3' DNA (unknown origin) assessed as change in melting temperature at 2:1 ligand and DNA by specrophotometry.
The nature of series [7]: Binding affinity to 5'-dCCAAAATTTTG CTCT CAAAATTTTGG-3' DNA (unknown origin) assessed as DNA intercalation incubated for 5 mins by circular dichroism method.
The subject of series [8] is Leishmania donovani. Kind of series: Antileishmanial activity against Leishmania donovani LV82 intracellular amastigotes infected in murine peritoneal macrophage incubated for […] by beta-lactamase reporter gene based spectrophotometry. Format: functional, organism-based.
A short description of series [9]: Selectivity index, ratio of IC50 for mouse peritoneal macrophages to IC50 for Leishmania donovani LV82 intracellular amastigotes. Type of series: toxicity, cell-based. The note with it: read-out: Ratio IC50.
Series [10] relates to Leishmania donovani. In words: Antileishmanial activity against Leishmania donovani LV82 promastigotes infected in BALB/c mouse assessed as reduction in liver parasitemia at 1.2 mg/kg, ip administered for 5 days by Geimsa staining based assay relative to control. Also on record: scale not given: the % may be the effect or the level left. Type of series: functional.

In the case of `CN1/C(=C/c2cc[n+](C)c3c(-c4ccccc4)cccc23)Sc2ccccc21`, the IC50 was determined as 24 nM in series [1] and 200 nM in series [2]. The selectivity ratio in series [3] stood at 8.3.
In the case of `CC[n+]1ccc(/C=C2\Sc3ccccc3N2C)c2ccccc21`, the IC50 in [1] was 12 nM; in series [2], 170 nM; in [4], 72 nM. Further, the selectivity ratio in series [3] came to 14.
As for `N=C(N)c1ccc(OCCCCCOc2ccc(C(=N)N)cc2)cc1` [PENTAMIDINE], in series [1], the IC50 was found to be 3100 nM.
On to `COc1cc([C@@H]2c3cc4c(cc3[C@H](O)[C@H]3COC(=O)[C@H]23)OCO4)cc(OC)c1OC` [PODOFILOX], for which, in [2], the IC50 turned out to be 23 nM.
For `COc1cccc2c(/C=C3\Sc4ccccc4N3C)cc[n+](C)c12`, the figures for the IC50 in [1] and in [2] were 30 nM and 59 nM, respectively. In [3], the selectivity ratio came to 2.
In the case of `COc1cccc2c1c(/C=C1\Sc3ccccc3N1C)cc[n+]2C`, the IC50 in series [1] came out at 25 nM; in series [2], 86 nM. Besides, the selectivity ratio in [3] amounted to 3.4.
In the case of `CN1/C(=C/c2cc[n+](C)c3cc(-c4ccccc4)ccc23)Sc2ccccc21`, the IC50 was 13 nM in series [1] and 69 nM in series [2]. In series [3], the selectivity ratio was determined as 5.3.
Turning to `Cc1ccc2c(/C=C3\Sc4ccccc4N3C)cc[n+](C)c2c1`, the IC50 in series [1] worked out at 37 nM; in series [2] it was 120 nM. Also, the selectivity ratio in [3] worked out at 3.2. Besides, the ΔTm in series [5] and in series [6] was 4 °C each time.
In the case of `CN1/C(=C/c2cccc[n+]2C)Sc2ccccc21`, the IC50 was found to be 290 nM in series [1], 2500 nM in series [2] and 1700 nM in [4]. Besides, the selectivity ratio in [3] came to 8.6. In addition, the shift in melting temperature (ΔTm) in [5] and in [6] was less than 1 °C throughout.
`Cc1ccc2c(c1)c(/C=C1\Sc3ccccc3N1C)cc[n+]2C`: the IC50 amounted to 31 nM in series [1] and 200 nM in series [2]. For the same compound, the selectivity ratio in series [3] worked out at 6.5. Also, the ΔTm in series [5] came to 5 °C; in series [6], 4 °C. Besides, the outcome in series [7] was Active.
Turning to `CN1/C(=C/c2cc[n+](C)c3cccc(Cl)c23)Sc2ccccc21`, the IC50 in [1] came to 16 nM; in series [2], 130 nM. In addition, the selectivity ratio in series [3] is 8.1.
Take `CN1C=CS/C1=C\c1cc[n+](C)c2ccccc12`: the IC50 in series [1] turned out to be 160 nM; in [2], 1500 nM. Also, the selectivity ratio in [3] is 9.4. Moreover, the ΔTm in series [5] was 2 °C; in series [6] it was 1 °C.
Take `COc1ccc2c(/C=C3\Sc4ccccc4N3C)cc[n+](C)c2c1`: the IC50 in [1] stood at 35 nM; in [2], 140 nM. Also, the selectivity ratio in [3] was 4.
With `CN1/C(=C/c2cc[n+](C)c3ccc(-c4ccccc4)cc23)Sc2ccccc21`, the results for the IC50 in [1] and in series [2] were 37 nM and 180 nM, respectively. In [3], the selectivity ratio came out at 4.9.
For the compound `Cc1cccc2c(/C=C3\Sc4ccccc4N3C)cc[n+](C)c12`, the values for the IC50 in [1] and in series [2] were 30 nM and 120 nM, respectively. Besides, the selectivity ratio in series [3] was 4. Also, the ΔTm in series [5] was found to be 4 °C; in [6], 3 °C.
Regarding `CN1/C(=C/c2cc[n+](C)c3ccccc23)Sc2ccccc21` [listing 1 of 2 here], the ΔTm in series [5] and in [6] was 4 °C throughout.
Regarding `CN1/C(=C/c2cc[n+](C)c3cc(Cl)ccc23)Sc2ccccc21`, the IC50 in series [1] was 34 nM; in series [2] it was 180 nM. For the same compound, in [3], the selectivity ratio is 5.3.
Turning to `CN1C=CC(=Cc2sc3ccccc3[n+]2C)C=C1`, the IC50 was found to be 140 nM in series [1], 2800 nM in series [2] and 960 nM in [4]. Besides, in series [3], the selectivity ratio turned out to be 20. Further, the ΔTm in series [5] was 1 °C; in series [6], less than 1 °C.
Take `CN1/C(=C/c2cc[n+](Cc3ccccc3)c3ccccc23)Sc2ccccc21`: the IC50 was determined as 26 nM in series [1] and 190 nM in series [2]. In addition, in series [3], the selectivity ratio was found to be 7.
Take `CCC[n+]1ccc(/C=C2\Sc3ccccc3N2C)c2ccccc21`: the values for the IC50 in series [1] and in [2] were 13 nM and 140 nM, respectively. Besides, the selectivity ratio in series [3] worked out at 11.
For `CN1/C(=C/c2cc[n+](C)c3ccccc23)Sc2ccccc21` [listing 2 of 2 here], the IC50 amounted to 14 nM in [1] and 190 nM in series [2]. Moreover, the selectivity ratio in series [3] came to 14.
In the case of `CN1/C(=C/c2cc[n+](C)c3ccc(Cl)cc23)Sc2ccccc21`, the IC50 in series [1] amounted to 31 nM; in [2], 310 nM. Moreover, in [3], the selectivity ratio amounted to 10.
For the compound `Cc1cccc2c1c(/C=C1\Sc3ccccc3N1C)cc[n+]2C`, the IC50 in series [1] came out at 24 nM; in [2], 120 nM. For the same compound, the selectivity ratio in series [3] stood at 5. The ΔTm in series [5] was 3 °C; in series [6], 4 °C.
`CN1/C(=C/c2cc[n+](C)c3ccccc23)Sc2ccccc21.Cc1ccc(S(=O)(=O)[O-])cc1`: in series [8], the IC50 is 21 nM. The selectivity ratio in [9] came out at 25. Moreover, in series [10], the Activity worked out at 48%.
On to `COc1ccc2c(c1)c(/C=C1\Sc3ccccc3N1C)cc[n+]2C`, for which the concentration for half-maximal inhibition (IC50) in [1] stood at 28 nM; in [2], 200 nM. Besides, the selectivity ratio in series [3] stood at 7.1.
As to `CN1/C(=C/c2cc[n+](C)c3cccc(-c4ccccc4)c23)Sc2ccccc21`, the IC50 amounted to 42 nM in [1] and 160 nM in [2]. Moreover, the selectivity ratio in [3] was 3.8. For the same compound, the ΔTm in [5] stood at 3 °C; in series [6] it was 2 °C.
